This is an account of results in publication PMC10945556, “Design, Synthesis, and Antifungal Activity of 3-Substituted-2(5H)-Oxaboroles” (ACS Medicinal Chemistry Letters, 2024).

In series [1] the test system is A. flavus. The experiment in a line: MIC, dose-dependent solid media assay. The format is cell-based, Aspergillus flavus. The settings on record: Aspergillus flavus.
Series [2] relates to P. chrysogenum. The series is described as follows: MIC, dose-dependent solid media assay. The format is cell-based, Penicillium chrysogenum. The settings on record: Penicillium chrysogenum.
Series [3] concerns B. cereus. The series is described as follows: MIC, microbroth dilution. In kind it is cell-based, Bacillus cereus. To be noted: Bacillus cereus.
The test system of series [4] is Methicillin resistant Staphylococcus aureus. The experiment in a line: MIC, microbroth dilution. The format is cell-based. To be noted: Staphylococcus aureus, S. aureus (MRSA).
Series [5] relates to E. coli. The series is described as follows: Growth inhibition screen in liquid medium. In kind it is cell-based, Escherichia coli. The settings on record: screen at 50 and 12.5 μg/mL. The source says:
These included four bacterial pathogens [Bacillus cereus (Gram-positive), Methicillin resistant Staphylococcus aureus (Gram-positive), Pseudomonas aeruginosa (Gram-negative), and Escherichia coli (Gram-negative)], a fungal pathogen (Candida albicans), and a yeast (Saccharomyces cerevisiae). […] Commercially available tavaborole, cycloheximide, and nystatin were also screened as benchmarks. […] In addition, the 3-substituted oxaboroles were screened in a dose-dependent manner on solid media against three spore-forming fungal pathogens: Trichophyton mentagrophytes, Penicillium chrysogenum, and Aspergillus flavus (Figures 2B and S152–S192). The compounds could not be screened for growth inhibition in liquid media against these pathogens due to clumping of the mycelia, which impeded the absorbance readings.

In series [6] the test system is P. aeruginosa. The experiment in a line: MIC, microbroth dilution. In kind it is cell-based, Pseudomonas aeruginosa. The settings on record: Pseudomonas aeruginosa.
Series [7] concerns S. cerevisiae. The series is described as follows: MIC, microbroth dilution. The format is cell-based, Saccharomyces cerevisiae. The settings on record: Saccharomyces cerevisiae.
The subject of series [8] is C. albicans. The experiment in a line: MIC, microbroth dilution. The format is cell-based, Candida albicans. The settings on record: Candida albicans.
Series [9] relates to E. coli. The series is described as follows: MIC, microbroth dilution. In kind it is cell-based, Escherichia coli. The settings on record: for MIC: Escherichia coli.
In series [10] the test system is T. mentagrophytes. The series is described as follows: MIC, dose-dependent solid media assay. To be noted: Trichophyton mentagrophytes. The format is cell-based, Trichophyton mentagrophytes.
For series [11], the system named is rat myoblast cells (H9c2). The experiment in a line: Cell viability assay against H9c2 cell line. The format is cell-based. The settings on record: concentrations up to 100 μM, 24 h. The protocol:
(§1) In general, very little growth inhibition was observed against either Gram-positive or Gram-negative bacterial pathogens. […] The SAR for the antibacterial is dissimilar to that observed for the antifungal properties.
(§2) Figure 3 (A) Cell viability assay against H9c2 cell line at 100 μM for 24 h (normalized to PBS no treatment), (B) Hemolytic assay at 50 and 100 μM for 1 h (normalized to triton X-100 positive control). Error bars in both graphs represent standard error of mean (SEM) of replicates (n = 3).

The nature of series [12]: Hemolytic assay. In kind it is cell-based. To be noted: 50 and 100 μM for 1 h. The protocol:
as §1, §2

Values after ≈ are worked out from the molar mass of the structure shown.

On to `OB1OCC=C1c1ccc(Cl)cc1` [Compound 6e], for which the MIC is 50 µg/mL in series [1]; 258 µM in series [1] (value in parentheses); 12.5 µg/mL in series [2]; 64.4 µM in [2] (value in parentheses); above 50 µg/mL in [3]; above 258 µM in series [3] (value in parentheses). The MIC in [4] was above 50 µg/mL; in series [4] (value in parentheses) it was above 258 µM; in [6], above 50 µg/mL; in series [6] (value in parentheses) it was above 258 µM; in series [7], 5.2 ± 1 µg/mL; in [7] (value in parentheses) it was 26.8 µM. The MIC is above 50 µg/mL in series [8]; above 258 µM in [8] (value in parentheses); 20 to 50 µg/mL in series [9]; 129 µM in series [9] (value in parentheses); 50 µg/mL in series [10]; 258 µM in series [10] (value in parentheses). Also, the “growth inhibition of E. coli” value in [5] is “inhibited the growth”. In addition, the “MIC EC” value in series [9] came out at 25 ± 0 µg/mL (≈ 129 µM).

For the compound `OB1OCC=C1c1ccc(Br)cc1` [Compound 6h], the “cytotoxic effects against rat myoblast cells (H9c2)” value (“cytotoxic effects” below) in [11] is reported as “none”. Moreover, the MIC is 33 ± 8 µg/mL in [1]; 139 µM in series [1] (value in parentheses); 12.5 µg/mL in [2]; 52.5 µM in [2] (value in parentheses); above 50 µg/mL in series [3]; above 210 µM in series [3] (value in parentheses). Moreover, the MIC in [4] is above 50 µg/mL; in series [4] (value in parentheses), above 210 µM; in series [6], above 50 µg/mL; in [6] (value in parentheses), above 210 µM; in series [7] it was 12.5 µg/mL; in series [7] (value in parentheses), 52.5 µM. The MIC in [8] was above 50 µg/mL; in series [8] (value in parentheses), above 210 µM; in [9], 20 to 50 µg/mL; in [9] (value in parentheses), 88.2 µM; in series [10] it was 33 ± 8 µg/mL; in series [10] (value in parentheses), 139 µM. Further, the “growth inhibition of E. coli” value in [5] is “inhibited the growth”. Also, the hemolytic activity entry in [12] is reported as “none possessed hemolytic activity”. In addition, the “MIC EC” value in series [9] was 21 ± 4 µg/mL (≈ 87.9 µM).

In the case of `Cc1cccc(C2=CCOB2O)c1` [Compound 6u], the “cytotoxic effects” value in series [11] is recorded as “none”. In addition, the minimum inhibitory concentration (MIC) was 33 ± 8 µg/mL in series [1]; 190 µM in series [1] (value in parentheses); 25 µg/mL in series [2]; 144 µM in series [2] (value in parentheses); above 50 µg/mL in series [3]; above 287 µM in series [3] (value in parentheses). The MIC was above 50 µg/mL in [4]; above 287 µM in series [4] (value in parentheses); above 50 µg/mL in series [6]; above 287 µM in [6] (value in parentheses); 21 ± 4 µg/mL in series [7]; 121 µM in series [7] (value in parentheses). The MIC in series [8] is above 50 µg/mL; in [8] (value in parentheses) it was above 287 µM; in series [9] it was above 50 µg/mL; in series [9] (value in parentheses), above 287 µM; in [10] it was 42 ± 8 µg/mL; in [10] (value in parentheses) it was 241 µM. Also, in series [12], the hemolytic activity entry is “none possessed hemolytic activity”.

Consider `OB1OCC=C1c1ccc2occc2c1` [Compound 6r], for which the “cytotoxic effects” value in [11] is on record as “none”. Besides, the MIC in [1] was 50 µg/mL; in series [1] (value in parentheses) it was 250 µM; in series [2], 25 µg/mL; in series [2] (value in parentheses), 125 µM; in [3], above 50 µg/mL; in series [3] (value in parentheses), above 250 µM. Besides, the MIC in [4] is above 50 µg/mL; in series [4] (value in parentheses), above 250 µM; in series [6], above 50 µg/mL; in series [6] (value in parentheses) it was above 250 µM; in [7] it was 5.2 ± 1 µg/mL; in series [7] (value in parentheses), 26 µM. Besides, the MIC in series [8] was above 50 µg/mL; in series [8] (value in parentheses), above 250 µM; in series [9] it was above 50 µg/mL; in [9] (value in parentheses) it was above 250 µM; in [10], 50 µg/mL; in [10] (value in parentheses), 250 µM. Besides, in series [12], the hemolytic activity result was “none possessed hemolytic activity”.

For `OB1OCC=C1c1cccs1` [Compound 6s], the minimum inhibitory concentration (MIC) in [1] was above 50 µg/mL; in series [1] (value in parentheses) it was above 301 µM; in series [2], 50 µg/mL; in [2] (value in parentheses), 301 µM; in series [3] it was above 50 µg/mL; in series [3] (value in parentheses), above 301 µM. In addition, the MIC in series [4] was above 50 µg/mL; in [4] (value in parentheses), above 301 µM; in series [6], above 50 µg/mL; in series [6] (value in parentheses), above 301 µM; in series [7], 10 ± 2 µg/mL; in series [7] (value in parentheses), 60.2 µM. The MIC in series [8] was above 50 µg/mL; in series [8] (value in parentheses), above 301 µM; in series [9] (value in parentheses) it was 253 µM; in series [10], above 50 µg/mL; in [10] (value in parentheses), above 301 µM. Further, in [5], the “growth inhibition of E. coli” value is reported as “inhibited the growth”.

For `Cc1ccc(C2=CCOB2O)cc1` [Compound 6t], the “cytotoxic effects” value in series [11] was “none”. In addition, the MIC in series [1] was above 50 µg/mL; in [1] (value in parentheses), above 287 µM; in [2], 21 ± 4 µg/mL; in series [2] (value in parentheses), 121 µM; in series [3], above 50 µg/mL; in series [3] (value in parentheses), above 287 µM. The MIC is above 50 µg/mL in series [4]; above 287 µM in series [4] (value in parentheses); above 50 µg/mL in [6]; above 287 µM in series [6] (value in parentheses); 10.4 ± 2 µg/mL in series [7]; 59.8 µM in series [7] (value in parentheses). Further, the MIC in series [8] was above 50 µg/mL; in series [8] (value in parentheses), above 287 µM; in series [9] (value in parentheses), 241 µM; in [10] it was above 50 µg/mL; in [10] (value in parentheses) it was above 287 µM. The “growth inhibition of E. coli” value in series [5] is “inhibited the growth”. In addition, the hemolytic activity entry in series [12] is on record as “none possessed hemolytic activity”.

Regarding `OB1OCC=C1c1cccc(Br)c1` [Compound 6i], the “cytotoxic effects” value in [11] is given as “none”. For the same compound, the MIC in series [1] was 25 µg/mL; in series [1] (value in parentheses), 105 µM; in series [2], 10.4 ± 2 µg/mL; in series [2] (value in parentheses) it was 43.7 µM; in series [3], above 50 µg/mL; in series [3] (value in parentheses) it was above 210 µM. Further, the MIC is above 50 µg/mL in series [4]; above 210 µM in series [4] (value in parentheses); above 50 µg/mL in [6]; above 210 µM in series [6] (value in parentheses); 50 µg/mL in series [7]; 210 µM in [7] (value in parentheses). For the same compound, the MIC in series [8] was above 50 µg/mL; in [8] (value in parentheses) it was above 210 µM; in series [9], above 50 µg/mL; in [9] (value in parentheses), above 210 µM; in [10], 25 µg/mL; in series [10] (value in parentheses), 105 µM. The hemolytic activity entry in series [12] is reported as “none possessed hemolytic activity”.

`OB1OCC=C1c1ccc(F)cc1` [Compound 6b]: the MIC in [1] is above 50 µg/mL; in series [1] (value in parentheses), above 281 µM; in [2] it was 25 µg/mL; in [2] (value in parentheses), 140 µM; in [3], above 50 µg/mL; in series [3] (value in parentheses), above 281 µM. Further, the MIC was above 50 µg/mL in [4]; above 281 µM in [4] (value in parentheses); above 50 µg/mL in series [6]; above 281 µM in series [6] (value in parentheses); 10.4 ± 2 µg/mL in [7]; 58.4 µM in series [7] (value in parentheses). The MIC in [8] was above 50 µg/mL; in series [8] (value in parentheses) it was above 281 µM; in series [9] (value in parentheses) it was 236 µM; in [10], above 50 µg/mL; in series [10] (value in parentheses) it was above 281 µM. Moreover, the “growth inhibition of E. coli” value in series [5] is on record as “inhibited the growth”.

For `CCCc1ccc(C2=CCOB2O)cc1` [Compound 6x], the “cytotoxic effects” value in [11] is reported as “none”. Further, the MIC in series [1] was above 50 µg/mL; in [1] (value in parentheses), above 248 µM; in series [2], 12.5 µg/mL; in [2] (value in parentheses), 61.9 µM; in [3], above 50 µg/mL; in series [3] (value in parentheses), above 248 µM. Also, the MIC in [4] is above 50 µg/mL; in [4] (value in parentheses), above 248 µM; in series [6] it was above 50 µg/mL; in [6] (value in parentheses), above 248 µM; in [7] it was 10.4 ± 2 µg/mL; in [7] (value in parentheses), 51.5 µM. The MIC is above 50 µg/mL in series [8]; above 248 µM in [8] (value in parentheses); 20 to 50 µg/mL in [9]; 104 µM in series [9] (value in parentheses); 50 µg/mL in [10]; 248 µM in series [10] (value in parentheses). Besides, in series [5], the “growth inhibition of E. coli” value is recorded as “inhibited the growth”. Further, in series [12], the hemolytic activity entry is recorded as “none possessed hemolytic activity”. The “MIC EC” value in [9] was found to be 21 ± 4 µg/mL (≈ 104 µM).
